Assay results taken from PMC12391121, “Identification and validation of the VEGF/p38MAPK/HSP27 pro-tumor inflammatory pathway: screening of active components from Patrinia villosa and evaluation of their drug-likeness” (Frontiers in Immunology, 2025).

Experiments:
p38MAPK = biological target: T1, p38MAPK (Homo sapiens, UniProt Q16539); test: microscale thermophoresis; type: binding
T1 construct: gene MAPK14; commercial recombinant human protein; labelled with Monolith RED-NHS

HSP27 = biological target: T2, HSP27 (Homo sapiens, UniProt P04792); test: microscale thermophoresis; type: binding
T2 construct: gene HSPB1; commercial recombinant human protein; labelled with Monolith RED-NHS
T2 sequence (P04792 whole entry): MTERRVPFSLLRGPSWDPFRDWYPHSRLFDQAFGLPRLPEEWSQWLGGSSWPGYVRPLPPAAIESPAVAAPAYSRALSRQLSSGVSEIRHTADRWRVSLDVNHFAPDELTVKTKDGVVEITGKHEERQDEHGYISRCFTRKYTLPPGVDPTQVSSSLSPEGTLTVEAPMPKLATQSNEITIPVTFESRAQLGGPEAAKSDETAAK
Description: microscale thermophoresis on HSP27

T1 sequence (Q16539 2-360): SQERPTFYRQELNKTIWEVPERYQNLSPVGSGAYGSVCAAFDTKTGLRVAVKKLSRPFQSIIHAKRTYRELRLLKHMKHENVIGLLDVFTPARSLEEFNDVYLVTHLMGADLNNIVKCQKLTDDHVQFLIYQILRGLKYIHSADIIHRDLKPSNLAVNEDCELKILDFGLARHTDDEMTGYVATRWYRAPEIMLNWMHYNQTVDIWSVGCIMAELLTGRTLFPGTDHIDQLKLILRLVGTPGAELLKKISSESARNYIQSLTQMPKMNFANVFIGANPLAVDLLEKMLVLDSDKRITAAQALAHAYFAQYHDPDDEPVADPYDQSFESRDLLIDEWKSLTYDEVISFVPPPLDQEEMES

Kd (p38MAPK) | Kd (HSP27) | Structure (SMILES)
1.71 µM | 3.64 µM | O=C(/C=C/c1ccc(O)c(O)c1)O[C@@H]1[C@H](O)C[C@@](O)(C(=O)O)C[C@H]1OC(=O)/C=C/c1ccc(O)c(O)c1 [4,5-Dicqa]
1.4 µM | 4.47 µM | C[C@@H]1O[C@@H](OC[C@H]2O[C@@H](Oc3c(-c4ccc(O)cc4)oc4cc(O)cc(O)c4c3=O)[C@H](O)[C@@H](O)[C@@H]2O)[C@H](O)[C@H](O)[C@H]1O [Nicotiflorin]
1.27 µM | 3.76 µM | C[C@@H]1O[C@@H](OC[C@H]2O[C@@H](Oc3c(-c4ccc(O)c(O)c4)oc4cc(O)cc(O)c4c3=O)[C@H](O)[C@@H](O)[C@@H]2O)[C@H](O)[C@H](O)[C@H]1O [Rutin]
 | 0.915 µM | C[S+]([O-])c1ccc(-c2nc(-c3ccncc3)c(-c3ccc(F)cc3)[nH]2)cc1 (stereo not shown) [SB203580]
